Data published in PubChem BioAssay AID1419 (Emory University Molecular Libraries Screening Center, 2008).
Calls of active or inactive are those of the source. The rule behind the calls is not given here.

Experiment: EBV protein-peptide binding inhibitors, dose response, biochemical, fluorescence polarization (AID 1419)
Conditions: cell-free protein-peptide binding, 2 h; for fold change: measured here: P channel fold over control, at 54 µM

| Compound | IC50 | fold change |
| --- | --- | --- |
| COC(=O)c1ccccc1NC(=O)Nc1ncccc1C | > 54 µM (inactive) | 0.937 |
| COc1ccc(N2C(=O)[C@@H]3[C@H](C2=O)[C@H]2c4ccccc4C=CN2[C@@H]3C(C)=O)cc1 | 7.62 µM | 5.55 |
| COc1ccc(-c2csc(NC(=O)CSc3nc(C)nc4sc(C(=O)O)c(C)c34)n2)cc1 | > 54 µM (inactive) | 0.987 |
| CC(=O)c1ccc2noc(-c3ccc(F)cc3)c2c1 | 3.34 µM | 4.39 |
| COc1ccc(NC(=O)CSc2ccc3c4c(cccc24)C(=O)c2ccccc2-3)cc1 | 3.14 µM | 11 |
| O=C(NCc1ccco1)c1c2c(nc3ccccc13)CCC2 | > 54 µM (inactive) | 1.05 |
| COc1ccc(/C=C2\SC(=O)N(CC(=O)NNC(=O)c3ccccc3O)C2=O)cc1 | > 54 µM (inactive) | 1.01 |
| O=c1nc2c(O)cccn2c2c1c(=O)[nH]c1ccccc12 | < 0.42 µM | 7.35 |
| CCN1C(=O)/C(=C/C2=Cc3ccccc3OC2C)SC1=S (stereo unspecified) | 17.2 µM | 5.33 |
| Brc1ccc(C2=CC(c3ccco3)n3ncnc3N2)cc1 (stereo unspecified) | 1.09 µM | 6.05 |
| Cc1cc(/C=C(/C#N)c2nc3ccccc3[nH]2)c(C)n1-c1cc(C(=O)O)cc(C(=O)O)c1 | 2.92 µM | 23.1 |
| O=C(c1ccc2nc(-c3ccco3)c(-c3ccco3)nc2c1)N1CCN(c2ncccn2)CC1 | > 54 µM (inactive) | 1.05 |
| CCCN1C(=O)c2cccc3c(N4CCCCC4)ccc(c23)C1=O | > 54 µM (inactive) | 15.2 |
| Cc1cccc2c3nc4ccccc4nc3n(CCCN3C(=O)c4ccccc4C3=O)c12 | 15.9 µM | 3.01 |
| CCOC(=O)c1c(/N=C/c2c(O)n(-c3ccc(F)cc3)c(=S)[nH]c2=O)sc2c1CCCC2 | 22.8 µM | 3.7 |
| COC(=O)c1cc(NC(=O)c2ccccc2)c(=O)oc1/C=C/Nc1ccc(Oc2ccccc2)cc1 | 1.4 µM | 22 |
| CCN(CC)c1ccc2cc(C(=O)NNC(=O)c3ccc(S(=O)(=O)N4CCCCC4)cc3)c(=O)oc2c1 | 3.01 µM | 87.1 |
| CN1C=CC2=C(C#N)C(N)C(C#N)(C#N)C(c3ccccc3)C2C1 (stereo unspecified) | 4.53 µM | 3.69 |
| COc1ccccc1NC(=O)c1sc2nc(Cc3ccccc3)cc(C(F)(F)F)c2c1N | 1.71 µM | 10.7 |
| COC(=O)c1ccc(C)c(NC(=O)CCSc2ccc(Cl)cc2)c1 | > 54 µM (inactive) | 1.15 |

| Compound | IC50 | fold change |
| --- | --- | --- |
| CS(=O)(=O)Nc1nc2n(n1)C(c1ccccc1)C=C(c1ccc(Br)cc1)N2 (stereo unspecified) | 5.72 µM | 2.76 |
| O=[N+]([O-])c1ccc(N2N=C(c3ccco3)CC2c2ccccc2)cc1 (stereo unspecified) | 14.2 µM | 2.85 |
| CCOc1ccc(N/C=C/C(=O)c2ccc(OC)cc2)c([N+](=O)[O-])c1 | 4.13 µM | 2.81 |
| Cc1ccccc1NC(=O)CSc1ccsc1[N+](=O)[O-] | 15.2 µM | 1.04 |
| O=c1[nH]c2c(s1)C=Nc1ccccc1N2 | 0.81 µM | 9.16 |
| O=C(O)c1ccccc1C1=Nc2ccc(O)cc2Oc2cc(O)ccc21 | < 0.42 µM | 14.2 |
| COc1ccc(N=Nc2nc3cc(Br)c(Br)cc3n2C)c(OC)c1 | 2.95 µM | 5.37 |
| O=[N+]([O-])c1ccc(-c2nc3ccc([N+](=O)[O-])cc3[nH]2)cc1 | > 54 µM (inactive) | 1.04 |
| CC(C)CSC1=NSC2=NC(=O)/C(=C\c3coc4ccccc4c3=O)C(=N)N12 | > 54 µM (inactive) | 33 |
| Cc1ncc([N+](=O)[O-])n1Cc1cccc2ccccc12 | > 54 µM (inactive) | 0.957 |
| COc1cc(C2C(C#N)=C(N)OC3=C2C(=O)CCC3)c([N+](=O)[O-])cc1OC (stereo unspecified) | > 54 µM (inactive) | 1.22 |
| CCN(c1ccc(N=Cc2c(O)n(Cc3ccc(OC)cc3)c(=O)c3ccccc23)cc1)C(C)C | 2.17 µM | 132 |
| C=C1c2cc(OC)ccc2NC(=O)N1CC | 8.9 µM | 1.91 |
| CC(=C/c1ccccc1)/C=N/NC(=O)c1cnccn1 | > 54 µM (inactive) | 1.1 |
| CCOC(=O)c1cc(-c2ccc(/C=C3/C(=O)NC(=O)C(C#N)=C3C)o2)ccc1Cl | < 0.42 µM | 2.14 |
| N#CC1=C(N)C(C#N)(C#N)C(c2cccnc2)C2CCCC=C12 (stereo unspecified) | 4.81 µM | 2.44 |
| COc1ccc(Cn2c3ccc(OC)cc3c3nc4ccccc4nc32)cc1 | 3.27 µM | 3.38 |
| O=C(COc1ccc(/C=N/NC(=O)c2ccc(O)cc2)cc1)Nc1ccc([N+](=O)[O-])cc1 | 2.97 µM | 0.957 |
| CCNc1ccc2noc3c2c1C(=O)c1ccccc1-3 | < 0.42 µM | 235 |
| O=C1Nc2ccc(Cl)cc2C12Nc1ccccc1-c1nnc(SCc3ccccc3F)nc1O2 (stereo unspecified) | 3.05 µM | 14.3 |

| Compound | IC50 | fold change |
| --- | --- | --- |
| N#C/C(=C\C=C\c1ccccc1)c1nc(-c2ccc3c(c2)OCO3)cs1 | 1.49 µM | 14.2 |
| COc1ccc(N=Nc2nc3ccc(Br)cc3n2C)cc1 | > 54 µM (inactive) | 1.28 |
| CC(C)(C)N1CC(c2nc3ccccc3n2CCOc2ccccc2)CC1=O (stereo unspecified) | 15.4 µM | 1.08 |
| COc1ccc(C(CC(=O)N2CCOCC2)c2c(OC)cc(OC)c3c(-c4ccccc4)cc(=O)oc23)cc1 (stereo unspecified) | > 54 µM (inactive) | 0.973 |
| O=C(NC1CC1)c1cc(-c2ccco2)nc2ccccc12 | 3.96 µM | 1.06 |
| O=Cc1ccc2oc3nc4n(c(=O)c3c(=O)c2c1)CCCS4 | > 54 µM (inactive) | 1.03 |
| Cc1ccc(-c2noc(CCC(=O)N3CCCC3)n2)cc1 | > 54 µM (inactive) | 1.01 |
| O=C1C2CC=C(Cl)CC2C(=O)N1CCCCCCN1C(=O)C2CC=C(Cl)CC2C1=O (stereo unspecified) | 6.72 µM | 1.89 |
| Fc1ccccc1C(c1nnnn1C1CCCC1)N1CCN(Cc2ccccc2)CC1 (stereo unspecified) | > 54 µM (inactive) | 1.05 |
| CC1=CC(=C(C#N)c2nc3ccccc3s2)C=C(C)N1CC1CCCO1 (stereo unspecified) | 3.9 µM | 9.43 |
| O=C(CSc1ccsc1[N+](=O)[O-])Nc1cc(F)ccc1F | > 54 µM (inactive) | 1.05 |
| COc1ccc2c3c(cccc13)C(=O)N(O)C2=O | 4.72 µM | 2.23 |
| COC(=O)CN1C(=O)N(c2ccccc2)C(N(O)C(=O)Nc2ccccc2)C1(C)C (stereo unspecified) | > 54 µM (inactive) | 1 |
| O=C(Nc1ccccc1F)C(=Cc1sc(N2CCOCC2)nc1-c1ccccc1)C(=O)Nc1ccccc1F | 5.71 µM | 7.63 |
| Cc1nn(-c2ccccc2)c(N2CCCC2)c1/C=C1\N=C(c2ccccc2)OC1=O | 25.5 µM | 3.5 |
| O=C(C1=C(O)C(=O)N(c2nccs2)C1c1ccccc1)c1cc2ccccc2o1 (stereo unspecified) | < 0.42 µM | 161 |
| Nn1c(Cc2ccccc2F)nnc1SCC(=O)N1CC(=O)Nc2ccccc21 | > 54 µM (inactive) | 1 |
| Cc1c2ccccc2nc2c(F)c(NCCO)c(F)c(F)c12 | < 0.42 µM | 40.1 |
